Assay results reported in publication PMC4457528, “Identification of Novel Small Molecule Inhibitors of Oncogenic RET Kinase” (PLoS ONE, 2015).
Where two headings read alike, the source gives them in different places.

What was measured:
Assay in all cases: KinomeScan kinase panel, single concentration 10 µM
Assay type in all cases: binding
KinomeScan kinase panel [1] = biological target: T1, KinomeScan kinase panel (Homo sapiens, UniProt O15530); conditions: PDPK1, 10 µM; read-out: score (%)
T1 construct: purchased DiscoveRx (KinomeScan)
T1 sequence (O15530 1-556): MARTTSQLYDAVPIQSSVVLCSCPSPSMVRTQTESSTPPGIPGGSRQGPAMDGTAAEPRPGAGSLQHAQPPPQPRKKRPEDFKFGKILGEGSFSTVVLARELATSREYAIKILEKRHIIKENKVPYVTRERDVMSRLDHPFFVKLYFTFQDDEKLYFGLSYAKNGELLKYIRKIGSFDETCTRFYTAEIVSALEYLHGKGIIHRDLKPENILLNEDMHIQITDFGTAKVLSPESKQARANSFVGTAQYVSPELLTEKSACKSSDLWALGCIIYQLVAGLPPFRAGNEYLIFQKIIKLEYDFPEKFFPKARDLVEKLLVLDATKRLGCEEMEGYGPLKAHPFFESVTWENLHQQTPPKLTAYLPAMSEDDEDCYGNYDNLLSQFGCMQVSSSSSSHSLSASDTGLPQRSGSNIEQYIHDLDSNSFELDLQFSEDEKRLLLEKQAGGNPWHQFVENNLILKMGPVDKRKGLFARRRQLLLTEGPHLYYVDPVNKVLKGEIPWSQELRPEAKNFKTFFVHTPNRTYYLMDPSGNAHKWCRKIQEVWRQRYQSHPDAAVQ

KinomeScan kinase panel [2] = biological target: T2, KinomeScan kinase panel (Homo sapiens, UniProt P00533); conditions: EGFR, 10 µM
T2 construct: purchased DiscoveRx (KinomeScan)

KinomeScan kinase panel [3] = biological target: T3, KinomeScan kinase panel (Homo sapiens, UniProt O00506); conditions: kinase YSK1; 10 µM; read-out: score (%)
T3 construct: purchased DiscoveRx (KinomeScan)

KinomeScan kinase panel [4] = biological target: T4, KinomeScan kinase panel (Homo sapiens, UniProt Q9HCP0); conditions: CSNK1G1, 10 µM
T4 construct: purchased DiscoveRx (KinomeScan)

KinomeScan kinase panel [5] = biological target: T5, KinomeScan kinase panel (Homo sapiens, UniProt Q8NEV4); conditions: MYO3A, 10 µM; read-out: score (%)
T5 construct: purchased DiscoveRx (KinomeScan)

KinomeScan kinase panel [6] = biological target: T6, KinomeScan kinase panel (Homo sapiens, UniProt Q9UEE5); conditions: DRAK1, 10 µM; read-out: score (%)
T6 construct: purchased DiscoveRx (KinomeScan)
T6 sequence (Q9UEE5 1-414): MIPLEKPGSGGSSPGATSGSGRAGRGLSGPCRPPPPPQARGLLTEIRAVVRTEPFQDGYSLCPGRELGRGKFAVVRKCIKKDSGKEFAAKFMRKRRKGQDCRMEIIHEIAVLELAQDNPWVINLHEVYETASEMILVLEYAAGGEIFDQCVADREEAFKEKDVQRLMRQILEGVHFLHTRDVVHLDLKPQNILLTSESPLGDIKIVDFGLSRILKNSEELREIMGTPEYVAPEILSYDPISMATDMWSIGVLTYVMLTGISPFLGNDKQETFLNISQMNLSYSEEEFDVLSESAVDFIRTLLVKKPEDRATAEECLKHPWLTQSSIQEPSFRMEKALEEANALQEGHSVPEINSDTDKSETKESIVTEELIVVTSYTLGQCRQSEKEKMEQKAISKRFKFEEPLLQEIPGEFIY

KinomeScan kinase panel [7] = biological target: T7, KinomeScan kinase panel (Homo sapiens, UniProt Q9NSY1); conditions: BIKE, 10 µM; read-out: score (%)
T7 construct: purchased DiscoveRx (KinomeScan)

KinomeScan kinase panel [8] = biological target: T8, KinomeScan kinase panel (Homo sapiens, UniProt P00533, G719C); conditions: EGFR(G719C), 10 µM
T8 construct: purchased DiscoveRx (KinomeScan)

KinomeScan kinase panel [9] = biological target: T9, KinomeScan kinase panel (Homo sapiens, UniProt P16591); conditions: FER, 10 µM; read-out: score (%)
T9 construct: purchased DiscoveRx (KinomeScan)

KinomeScan kinase panel [10] = biological target: T10, KinomeScan kinase panel (Homo sapiens, UniProt Q96SB4); conditions: read-out: score (%)
T10 construct: purchased DiscoveRx (KinomeScan)

KinomeScan kinase panel [11] = biological target: T11, KinomeScan kinase panel (Homo sapiens, UniProt Q8N568); conditions: DCAMKL2, 10 µM; read-out: score (%)
T11 construct: purchased DiscoveRx (KinomeScan)

KinomeScan kinase panel [12] = biological target: T12, KinomeScan kinase panel (Homo sapiens, UniProt P10721, V559D/V654A); conditions: KIT(V559D.V654A), 10 µM; read-out: score (%)
T12 construct: purchased DiscoveRx (KinomeScan)

KinomeScan kinase panel [13] = biological target: T13, KinomeScan kinase panel (Homo sapiens, UniProt P04626); conditions: ERBB2, 10 µM; read-out: score (%)
T13 construct: purchased DiscoveRx (KinomeScan)

KinomeScan kinase panel [14] = biological target: T14, KinomeScan kinase panel (Homo sapiens, UniProt Q12851); conditions: MAP4K2, 10 µM; read-out: score (%)
T14 construct: purchased DiscoveRx (KinomeScan)
T14 sequence (Q12851 1-820): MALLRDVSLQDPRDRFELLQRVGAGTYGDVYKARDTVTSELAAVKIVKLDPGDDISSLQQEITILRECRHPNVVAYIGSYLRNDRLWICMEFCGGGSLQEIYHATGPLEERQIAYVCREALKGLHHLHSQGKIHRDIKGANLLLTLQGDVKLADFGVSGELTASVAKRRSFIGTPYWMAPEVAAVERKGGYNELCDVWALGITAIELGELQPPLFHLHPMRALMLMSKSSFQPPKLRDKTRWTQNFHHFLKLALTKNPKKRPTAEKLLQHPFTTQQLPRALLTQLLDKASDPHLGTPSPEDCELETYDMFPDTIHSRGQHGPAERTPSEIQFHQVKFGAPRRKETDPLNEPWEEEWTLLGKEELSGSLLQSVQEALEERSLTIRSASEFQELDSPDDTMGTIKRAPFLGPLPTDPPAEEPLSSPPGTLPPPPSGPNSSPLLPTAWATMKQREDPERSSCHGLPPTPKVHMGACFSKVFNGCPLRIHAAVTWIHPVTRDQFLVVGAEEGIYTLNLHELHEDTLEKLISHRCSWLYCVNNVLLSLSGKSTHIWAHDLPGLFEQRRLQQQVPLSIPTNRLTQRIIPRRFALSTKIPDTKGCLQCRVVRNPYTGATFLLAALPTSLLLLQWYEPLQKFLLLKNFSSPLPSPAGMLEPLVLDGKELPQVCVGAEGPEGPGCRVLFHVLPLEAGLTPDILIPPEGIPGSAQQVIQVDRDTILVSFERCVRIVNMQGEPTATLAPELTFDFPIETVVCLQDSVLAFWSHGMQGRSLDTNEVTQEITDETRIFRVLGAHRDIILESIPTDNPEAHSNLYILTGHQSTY

KinomeScan kinase panel [15] = biological target: T15, KinomeScan kinase panel (Homo sapiens, UniProt P00519, Q252H); conditions: 10 µM, read-out: score (%)
T15 construct: purchased DiscoveRx (KinomeScan)

T5 sequence (Q8NEV4 whole entry): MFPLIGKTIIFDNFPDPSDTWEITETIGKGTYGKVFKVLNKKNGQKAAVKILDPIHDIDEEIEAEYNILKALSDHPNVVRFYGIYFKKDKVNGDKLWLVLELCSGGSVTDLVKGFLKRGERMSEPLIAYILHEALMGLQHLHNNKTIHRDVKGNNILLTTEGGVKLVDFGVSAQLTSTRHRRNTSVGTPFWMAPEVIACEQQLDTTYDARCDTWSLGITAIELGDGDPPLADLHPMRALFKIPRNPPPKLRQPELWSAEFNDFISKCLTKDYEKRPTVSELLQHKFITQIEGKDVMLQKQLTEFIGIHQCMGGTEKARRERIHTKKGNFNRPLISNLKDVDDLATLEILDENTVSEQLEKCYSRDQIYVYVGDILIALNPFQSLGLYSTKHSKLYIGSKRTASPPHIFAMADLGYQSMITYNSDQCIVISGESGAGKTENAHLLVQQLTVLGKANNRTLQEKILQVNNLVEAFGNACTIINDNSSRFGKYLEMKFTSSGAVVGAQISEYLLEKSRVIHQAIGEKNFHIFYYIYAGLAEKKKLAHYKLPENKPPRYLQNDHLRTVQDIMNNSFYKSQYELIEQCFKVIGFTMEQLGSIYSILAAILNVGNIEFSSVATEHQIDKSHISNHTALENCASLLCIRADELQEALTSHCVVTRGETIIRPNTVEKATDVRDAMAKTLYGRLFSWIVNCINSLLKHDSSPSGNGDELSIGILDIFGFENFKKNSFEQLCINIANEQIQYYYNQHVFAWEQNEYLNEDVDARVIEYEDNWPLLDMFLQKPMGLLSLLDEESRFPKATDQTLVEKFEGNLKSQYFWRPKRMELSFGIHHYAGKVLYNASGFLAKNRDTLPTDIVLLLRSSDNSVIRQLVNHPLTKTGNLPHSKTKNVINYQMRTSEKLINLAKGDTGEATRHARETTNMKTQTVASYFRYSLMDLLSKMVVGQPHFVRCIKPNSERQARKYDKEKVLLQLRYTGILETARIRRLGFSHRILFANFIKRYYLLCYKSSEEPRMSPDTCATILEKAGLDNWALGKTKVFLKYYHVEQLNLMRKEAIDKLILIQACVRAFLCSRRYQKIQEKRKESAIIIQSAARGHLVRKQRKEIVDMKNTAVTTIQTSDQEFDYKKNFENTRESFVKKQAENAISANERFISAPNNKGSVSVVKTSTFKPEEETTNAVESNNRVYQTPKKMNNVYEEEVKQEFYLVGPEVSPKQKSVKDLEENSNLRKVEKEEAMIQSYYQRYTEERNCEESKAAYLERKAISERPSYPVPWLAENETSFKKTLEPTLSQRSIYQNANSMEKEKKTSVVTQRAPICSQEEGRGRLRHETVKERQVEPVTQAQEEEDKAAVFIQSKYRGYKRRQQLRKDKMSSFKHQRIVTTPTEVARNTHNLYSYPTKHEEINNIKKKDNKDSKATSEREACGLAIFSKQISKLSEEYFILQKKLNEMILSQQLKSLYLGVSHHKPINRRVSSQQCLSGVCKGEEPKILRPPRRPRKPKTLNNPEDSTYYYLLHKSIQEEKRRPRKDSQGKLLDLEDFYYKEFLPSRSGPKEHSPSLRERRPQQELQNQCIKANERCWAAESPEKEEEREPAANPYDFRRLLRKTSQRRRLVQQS
T13 sequence (P04626 23-1255): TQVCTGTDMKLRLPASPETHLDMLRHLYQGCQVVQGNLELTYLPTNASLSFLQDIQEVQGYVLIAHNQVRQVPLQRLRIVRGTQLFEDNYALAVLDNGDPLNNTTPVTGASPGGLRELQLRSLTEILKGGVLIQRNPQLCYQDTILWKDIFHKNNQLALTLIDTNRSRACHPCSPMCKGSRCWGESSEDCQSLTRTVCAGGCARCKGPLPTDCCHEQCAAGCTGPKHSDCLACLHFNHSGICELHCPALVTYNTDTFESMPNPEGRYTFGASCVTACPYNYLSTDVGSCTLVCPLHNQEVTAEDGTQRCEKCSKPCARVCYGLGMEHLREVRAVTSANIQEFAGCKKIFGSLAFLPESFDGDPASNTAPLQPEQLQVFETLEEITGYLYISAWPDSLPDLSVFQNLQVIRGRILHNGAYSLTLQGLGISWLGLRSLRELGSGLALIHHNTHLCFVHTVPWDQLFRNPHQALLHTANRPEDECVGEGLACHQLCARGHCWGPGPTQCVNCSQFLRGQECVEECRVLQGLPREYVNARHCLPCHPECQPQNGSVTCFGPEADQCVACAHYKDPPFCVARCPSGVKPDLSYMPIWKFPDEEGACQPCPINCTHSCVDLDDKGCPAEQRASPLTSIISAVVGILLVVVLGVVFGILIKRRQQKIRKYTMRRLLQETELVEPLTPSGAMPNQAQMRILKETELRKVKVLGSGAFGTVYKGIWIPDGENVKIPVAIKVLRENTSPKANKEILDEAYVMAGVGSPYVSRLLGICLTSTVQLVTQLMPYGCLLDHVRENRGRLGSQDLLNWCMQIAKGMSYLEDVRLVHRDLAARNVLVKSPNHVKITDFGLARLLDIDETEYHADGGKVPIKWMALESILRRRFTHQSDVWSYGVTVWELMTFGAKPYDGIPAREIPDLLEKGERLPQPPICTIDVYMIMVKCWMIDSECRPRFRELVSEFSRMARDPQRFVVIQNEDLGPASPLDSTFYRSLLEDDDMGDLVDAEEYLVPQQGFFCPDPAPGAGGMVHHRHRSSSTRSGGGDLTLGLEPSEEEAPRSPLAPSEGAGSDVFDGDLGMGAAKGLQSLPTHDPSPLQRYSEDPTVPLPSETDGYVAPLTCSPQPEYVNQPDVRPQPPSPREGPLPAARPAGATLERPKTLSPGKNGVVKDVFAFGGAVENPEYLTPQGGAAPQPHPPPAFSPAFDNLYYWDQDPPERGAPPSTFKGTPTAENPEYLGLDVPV
T3 sequence (O00506 whole entry): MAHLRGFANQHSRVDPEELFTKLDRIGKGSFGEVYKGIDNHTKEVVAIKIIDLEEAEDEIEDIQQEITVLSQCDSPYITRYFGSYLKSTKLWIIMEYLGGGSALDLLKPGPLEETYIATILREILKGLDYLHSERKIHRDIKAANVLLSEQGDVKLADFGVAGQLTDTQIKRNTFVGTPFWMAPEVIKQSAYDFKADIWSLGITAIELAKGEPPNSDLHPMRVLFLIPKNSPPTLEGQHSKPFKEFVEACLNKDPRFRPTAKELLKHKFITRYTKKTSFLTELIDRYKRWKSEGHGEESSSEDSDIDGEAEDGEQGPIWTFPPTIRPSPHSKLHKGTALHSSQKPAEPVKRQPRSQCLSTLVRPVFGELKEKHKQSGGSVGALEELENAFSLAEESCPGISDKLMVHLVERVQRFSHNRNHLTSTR
T9 sequence (P16591 whole entry): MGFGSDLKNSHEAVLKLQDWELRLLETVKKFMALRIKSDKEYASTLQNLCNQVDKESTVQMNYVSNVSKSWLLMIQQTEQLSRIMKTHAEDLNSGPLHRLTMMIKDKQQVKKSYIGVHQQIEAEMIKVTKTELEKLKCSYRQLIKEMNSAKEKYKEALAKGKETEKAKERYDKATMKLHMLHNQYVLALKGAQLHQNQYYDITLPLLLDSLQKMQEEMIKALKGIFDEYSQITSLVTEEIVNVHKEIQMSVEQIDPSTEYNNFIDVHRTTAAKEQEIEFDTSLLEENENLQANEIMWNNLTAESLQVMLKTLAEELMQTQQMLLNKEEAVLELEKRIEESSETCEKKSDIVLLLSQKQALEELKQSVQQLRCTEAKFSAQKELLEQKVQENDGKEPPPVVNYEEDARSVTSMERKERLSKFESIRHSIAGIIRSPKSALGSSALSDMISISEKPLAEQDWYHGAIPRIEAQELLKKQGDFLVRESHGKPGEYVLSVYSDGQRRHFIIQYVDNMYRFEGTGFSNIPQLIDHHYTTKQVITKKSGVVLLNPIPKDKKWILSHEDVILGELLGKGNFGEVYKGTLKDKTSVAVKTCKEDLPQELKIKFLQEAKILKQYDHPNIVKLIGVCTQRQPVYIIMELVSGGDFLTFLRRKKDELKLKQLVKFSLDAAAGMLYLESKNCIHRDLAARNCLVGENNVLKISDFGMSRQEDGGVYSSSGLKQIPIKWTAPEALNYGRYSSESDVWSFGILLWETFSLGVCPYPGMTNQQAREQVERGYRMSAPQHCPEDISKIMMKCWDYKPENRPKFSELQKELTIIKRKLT
T4 sequence (Q9HCP0 whole entry): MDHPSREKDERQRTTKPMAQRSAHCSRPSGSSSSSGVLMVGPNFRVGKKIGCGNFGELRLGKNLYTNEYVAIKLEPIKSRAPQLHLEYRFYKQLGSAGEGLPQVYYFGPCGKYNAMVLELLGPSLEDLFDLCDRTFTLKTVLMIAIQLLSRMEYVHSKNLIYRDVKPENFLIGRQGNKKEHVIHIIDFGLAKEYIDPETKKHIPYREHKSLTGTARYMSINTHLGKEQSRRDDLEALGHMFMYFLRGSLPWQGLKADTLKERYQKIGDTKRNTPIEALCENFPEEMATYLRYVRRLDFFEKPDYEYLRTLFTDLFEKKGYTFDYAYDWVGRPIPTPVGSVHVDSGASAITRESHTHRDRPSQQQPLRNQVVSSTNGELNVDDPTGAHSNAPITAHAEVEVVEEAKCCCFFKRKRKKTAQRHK

| remaining binding at 10 µM (KinomeScan kinase panel [10]; SRPK1, 10 µM) [%] | Structure (SMILES) | remaining binding at 10 µM (KinomeScan kinase panel [1]) [%] | score (%) (KinomeScan kinase panel [2]) | remaining binding at 10 µM (KinomeScan kinase panel [3]) [%] | score (%) (KinomeScan kinase panel [4]) | remaining binding at 10 µM (KinomeScan kinase panel [5]) [%] | remaining binding at 10 µM (KinomeScan kinase panel [6]) [%] | remaining binding at 10 µM (KinomeScan kinase panel [7]) [%] | score (%) (KinomeScan kinase panel [8]) | remaining binding at 10 µM (KinomeScan kinase panel [9]) [%] | remaining binding at 10 µM (KinomeScan kinase panel [10]; kinase SRPK1, 10 µM) [%] | remaining binding at 10 µM (KinomeScan kinase panel [11]) [%] | remaining binding at 10 µM (KinomeScan kinase panel [12]) [%] | remaining binding at 10 µM (KinomeScan kinase panel [13]) [%] | remaining binding at 10 µM (KinomeScan kinase panel [14]) [%] | remaining binding at 10 µM (KinomeScan kinase panel [15]; ABL1(Q252H)) [%] | remaining binding at 10 µM (KinomeScan kinase panel [15]; ABL1(Q252H)-nonphosphorylated) [%] | remaining binding at 10 µM (KinomeScan kinase panel [15]; ABL1(Q252H)-phosphorylated) [%] |
| --- | --- | --- | --- | --- | --- | --- | --- | --- | --- | --- | --- | --- | --- | --- | --- | --- | --- | --- |
| – | CCN1CCN(Cc2ccc(NC(=O)c3ccc(C)c(NC(=O)c4cncc(-c5cccs5)c4)c3)cc2C(F)(F)F)CC1 [ALW-II-41-27] | > 30 | 1.3 | > 30 | nb (Hits values higher than 30% were considered negative (no binding: nb)) | 17 | > 30 | > 30 | 0.15 | 5.6 | > 30 | > 30 | 5.4 | 11 | 0.6 | 0.25 | – | – |
| 0.25 | CCN1CCN(Cc2ccc(NC(=O)c3ccc(C)c(/C=C/c4cnc5[nH]ccc5c4Cl)c3)cc2C(F)(F)F)CC1 [HG-6-63-01, (E)-3-(2-(4-chloro-1H-pyrrolo[2,3-b]pyridin-5-yl)vinyl)-N-(4-((4-ethylpiperazin-1-yl)methyl)-3-(trifluoromethyl)phenyl)-4-methylbenzamide] | > 30 | 0.3 | > 30 | nb (Hits values higher than 30% were considered negative (no binding: nb)) | > 30 | 0.35 | 1.2 | 0.1 | 14 | – | > 30 | 0.9 | 21 | 0.25 | 0.1 | – | – |
| – | CCN1CCN(Cc2ccc(NC(=O)c3ccc(C)c(C#Cc4cccnc4)c3)cc2C(F)(F)F)CC1 [XMD15-44] | 84 | 3 | 16 | nb (Hits values higher than 30% were considered negative (no binding: nb)) | 3.2 | > 30 | > 30 | 0.75 | 11 | 100 | > 30 | 4.2 | 0.5 | 0 | – | 6.4 | 0.7 |
